Experiments:
[1] = accelerated stability study on the drug; assay type: physicochemical; settings: 60° C. and 90% relative humidity for up to 4 weeks
Experimental: Thus, in the development of a terbutaline sulphate dosage form, the applicant carried out accelerated stability studies on the drug at a temperature of 60° C. and 90% relative humidity for up to 4 weeks.

[2] = oxidative degradation, aqueous solutions; cited from earlier work

Row | degradation products [1] | SMILES | stability of drug substance [2]
1 | No degradation products were observed | CC(C)(C)NCC(O)c1cc(O)cc(O)c1 (centres unmarked) [terbutaline sulphate] | –
2 | – | CC(C)(C)NCC(O)c1cc(O)cc(O)c1 (centres unmarked) [terbutaline] | highly stable

Reference: patent US9849097B2, “Dosage forms containing terbutaline sulphate” (Jagotec AG, priority 2012, dated 2017)
